Literature values, collected in patent publication US6610702B2, “Ammonium salts of inositol hexaphosphate, and uses thereof” (GMP Oxycell, Inc., priority 2000, dated 2003).
Where two headings read alike, the source gives them in different places.

Assays:
[1] = buffer 100 mM sodium phosphate, pH 7.0; cited from earlier work
human RBCs = conditions: IHP encapsulated in human RBCs by continuous-flow electroporation; cited from earlier work
stripped hemoglobin = stripped hemoglobin (Homo sapiens, UniProt P68871); conditions: pH 7.4, cited from earlier work
stripped hemoglobin, sequence (P68871 2-147 limits assumed): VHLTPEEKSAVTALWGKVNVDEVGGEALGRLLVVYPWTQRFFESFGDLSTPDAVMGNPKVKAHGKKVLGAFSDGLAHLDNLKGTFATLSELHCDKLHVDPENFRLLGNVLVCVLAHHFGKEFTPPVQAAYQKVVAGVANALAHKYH
stripped hemoglobin, sequence (P69905 2-142 partner limits assumed): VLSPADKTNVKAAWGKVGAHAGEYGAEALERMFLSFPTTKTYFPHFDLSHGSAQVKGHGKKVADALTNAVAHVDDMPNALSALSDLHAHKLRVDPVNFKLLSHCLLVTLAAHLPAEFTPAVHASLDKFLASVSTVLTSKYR

[2] = target: allosteric site on hemoglobin (Homo sapiens, UniProt P68871); conditions: displaces hemoglobin-bound 2,3-DPG; cited from earlier work
allosteric site on hemoglobin, sequence (P68871 2-147 limits assumed): as the sequence (P68871 2-147 limits assumed) above
allosteric site on hemoglobin, sequence (P69905 2-142 partner limits assumed): as the sequence (P69905 2-142 partner limits assumed) above

SMILES	Octanol/buffer partition coefficient [1]	P50 of modified RBCs (human RBCs)	half-saturation pressure P(O2) (½) of stripped hemoglobin (stripped hemoglobin; 25 C., stripped hemoglobin alone 4.3)	half-saturation pressure P(O2) (½) of stripped hemoglobin (stripped hemoglobin; 37 C., stripped hemoglobin alone 9.3)	affinity for the allosteric site relative to 2,3-DPG [2]
Cc1cn([C@H]2CC(O)[C@@H](CO)O2)c(=O)[nH]c1=O (some centres unmarked)	0.064	–	–	–	–
O=P(O)(O)O[C@H]1[C@H](OP(=O)(O)O)[C@@H](OP(=O)(O)O)[C@H](OP(=O)(O)O)[C@@H](OP(=O)(O)O)[C@H]1OP(=O)(O)O [IHP, inositol hexaphosphate]	–	approximately 50 torr	48.4 mm Hg	96.4 mm Hg	one-thousand times greater affinity
